Data published in patent publication US20250340574A1, “MODULATORS OF CYSTIC FIBROSIS TRANSMEMBRANE CONDUCTANCE REGULATOR” (Vertex Pharmaceuticals Incorporated, priority 2022, published 2025).
Like-named read-outs stand apart in the source and are kept apart here.

Legend:
[1] = target: T1, CFTR (F508del/MF-HBE cells) (Homo sapiens, UniProt P13569, DEL508-508); assay: Ussing chamber assay of CFTR-mediated short-circuit currents, Assay C (0.026 μM to 25 μM, 6 concentrations); format: cell-based; settings: with 33 nM potentiator and 18 μM Tezacaftor, 20% human serum; for Emax: read-out: C Max activity (%)
T1 construct: human bronchial epithelial (HBE) cells derived from CF subjects heterozygous for F508del and a minimal function CFTR mutation (F508del/MF-HBE); endogenous in cells; host or cells: Primary human bronchial epithelial cells from CF subjects (F508del/MF genotype), differentiated at an air-liquid interface
T1 sequence (P13569 with tags, fused parts or gaps DEL508-508): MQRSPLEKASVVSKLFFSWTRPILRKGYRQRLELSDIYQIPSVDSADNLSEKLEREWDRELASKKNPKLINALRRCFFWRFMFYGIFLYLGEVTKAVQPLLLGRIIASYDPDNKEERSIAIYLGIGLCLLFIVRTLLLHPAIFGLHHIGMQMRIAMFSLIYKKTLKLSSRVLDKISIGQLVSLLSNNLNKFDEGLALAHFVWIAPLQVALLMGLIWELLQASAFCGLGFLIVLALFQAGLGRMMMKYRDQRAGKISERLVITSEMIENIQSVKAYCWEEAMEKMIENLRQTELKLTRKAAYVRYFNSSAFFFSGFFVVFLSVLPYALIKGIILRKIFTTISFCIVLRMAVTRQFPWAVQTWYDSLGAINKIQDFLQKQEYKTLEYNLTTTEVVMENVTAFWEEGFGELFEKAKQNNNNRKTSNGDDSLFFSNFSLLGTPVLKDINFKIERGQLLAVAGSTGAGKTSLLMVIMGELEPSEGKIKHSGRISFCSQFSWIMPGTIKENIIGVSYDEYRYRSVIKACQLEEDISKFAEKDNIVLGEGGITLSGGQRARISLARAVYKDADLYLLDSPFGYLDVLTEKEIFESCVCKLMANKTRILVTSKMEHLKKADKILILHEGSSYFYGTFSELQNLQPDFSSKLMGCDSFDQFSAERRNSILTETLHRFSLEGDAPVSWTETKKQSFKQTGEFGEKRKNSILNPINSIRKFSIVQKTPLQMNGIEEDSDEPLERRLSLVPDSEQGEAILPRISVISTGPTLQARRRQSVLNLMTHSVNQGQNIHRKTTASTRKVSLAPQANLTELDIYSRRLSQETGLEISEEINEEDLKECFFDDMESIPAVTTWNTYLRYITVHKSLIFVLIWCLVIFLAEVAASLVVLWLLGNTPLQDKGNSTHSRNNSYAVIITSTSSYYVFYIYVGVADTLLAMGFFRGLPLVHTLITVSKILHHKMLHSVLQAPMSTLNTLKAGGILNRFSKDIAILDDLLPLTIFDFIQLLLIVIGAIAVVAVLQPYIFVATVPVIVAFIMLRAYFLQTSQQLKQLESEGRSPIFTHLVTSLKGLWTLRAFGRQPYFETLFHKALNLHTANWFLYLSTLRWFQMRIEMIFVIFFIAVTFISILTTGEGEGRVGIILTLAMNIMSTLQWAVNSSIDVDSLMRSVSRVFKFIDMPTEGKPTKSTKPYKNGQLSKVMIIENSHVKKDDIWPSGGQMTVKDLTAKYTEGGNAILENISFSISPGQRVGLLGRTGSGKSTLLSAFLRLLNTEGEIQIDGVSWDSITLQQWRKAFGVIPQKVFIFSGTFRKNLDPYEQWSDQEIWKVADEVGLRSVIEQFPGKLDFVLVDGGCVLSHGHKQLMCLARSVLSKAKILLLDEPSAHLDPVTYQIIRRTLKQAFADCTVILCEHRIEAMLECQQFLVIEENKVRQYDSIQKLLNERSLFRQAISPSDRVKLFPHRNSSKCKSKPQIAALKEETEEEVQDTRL
Method in brief: (§1)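 F508del/MF-HBE cells grown at air-liquid interface were incubated 18-24 h at 37 °C in 20% human serum with correctors plus 18 μM tezacaftor and a fixed partner compound (33 nM for concentration series, 44 nM at 1 μM). ISC was read at 0 mV after 20 μM forskolin, minus the post-inhibitor current.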

[2] = target: T1, CFTR (F508del/MF-HBE cells); assay: Ussing chamber assay of CFTR-mediated short-circuit currents, Assay D (single concentration of 1 μM); format: cell-based; settings: with 44 nM potentiator and 18 μM Tezacaftor, 20% human serum; for D activity at 1 μM (%): 18-24 hours
Method in brief: as §1

Structure (SMILES)	EC50 [1]	Emax [1]	D act. at 1 μM (%) [2]	Emax ([1]; 18-24 hours)	D activity at 1 μM (%) [2]
COc1c2nc(nc1-c1c(C)cccc1C)NS(=O)(=O)c1cccc(c1)C(=O)N(Cc1cnc3oc(C(C)(C)C)cc3n1)[C@H](CC1(C)CC1)CO2 [IV-12]	1000 to 3000 nM	> 60%	+++ (+++ is >60%)		
Cc1cccc(CCC(C)C)c1-c1nc2nc(c1C)OC[C@@H](CC(C)(C)C)N(Cc1cnc3oc(C4CC4)cc3n1)C(=O)c1cccc(c1)S(=O)(=O)N2 (atropisomer, axis not shown) [Compound I-204]	< 1000 nM			> 60%	+++ (+++ is >60%)
Cc1cccc(CC(C)C)c1-c1nc2nc(c1C)OC[C@@H](CC1(C)CC1)N(Cc1cnc3oc(C(C)(C)C)cc3n1)C(=O)c1cccc(c1)S(=O)(=O)N2 (atropisomer, axis not shown) [IV-45]	1000 to 3000 nM	> 60%	+++ (+++ is >60%)		
Cc1cccc(CC(C)C)c1-c1nc2nc(c1C)OC[C@@H](CC1(C)CC1)N(Cc1cnc3cc(C(C)(C)C)n(C)c3n1)C(=O)c1cccc(c1)S(=O)(=O)N2 (atropisomer, axis not shown) [IV-44]	1000 to 3000 nM	> 60%	+++ (+++ is >60%)		
Cc1cccc(CC(C)C)c1-c1nc2nc(c1C)OC[C@@H](CC(C)(C)C)N(Cc1cnc3nc(C(C)C)n(C)c3n1)C(=O)c1cccc(c1)S(=O)(=O)N2 (atropisomer, axis not shown) [Compound I-171]	< 1000 nM			> 60%	+++ (+++ is >60%)
Cc1cccc(C)c1-c1nc2nc(c1C)OC[C@@H](CC1(C)CC1)N(Cc1cnc3cc(C(C)(C)C)n(C)c3n1)C(=O)c1cccc(c1)S(=O)(=O)N2 [Compound I-222]	< 1000 nM			> 60%	+++ (+++ is >60%)
Cc1cccc(C)c1-c1nc2nc(c1C)OC[C@@H](COC(C)C)N(Cc1cnc3cc(C4(C)CC4)n(C)c3n1)C(=O)c1cccc(c1)S(=O)(=O)N2 [IV-2]	< 1000 nM	> 60%	+++ (+++ is >60%)		
Cc1cccc(C)c1-c1cc2nc(n1)NS(=O)(=O)c1cccc(c1)C(=O)N(Cc1cnc3oc(CC(C)C)cc3n1)[C@H](CC1(C)CC1)CO2 [IV-24, (11R)-6-(2,6-dimethylphenyl)-12-[(6-isobutylfuro[2,3-b]pyrazin-2-yl)methyl]-11-[(1-methylcyclopropyl)methyl]-2,2-dioxo-9-oxa-2λ^6-thia-3,5,12,19-tetrazatricyclo[12.3.1.14,8]nonadeca-1(18),4(19),5,7,14,16-hexaen-13-one]	3000 to 30000 nM	> 60%	+++ (+++ is >60%)		
Cc1cccc(C)c1-c1cc2nc(n1)NS(=O)(=O)c1cccc(c1)C(=O)N(Cc1cnc3oc(C)c(C4CC4)c3n1)[C@H](CC13CC(C1)C3)CO2 [Compound I-86]	1000 to 3000 nM			> 60%	+++ (+++ is >60%)
Cc1cccc(C)c1-c1cc2nc(n1)NS(=O)(=O)c1cccc(c1)C(=O)N(Cc1cnc3cc(C4(C)CC4)n(C)c3n1)[C@H](COC(C)C)CO2 [Compound I-240]	< 1000 nM			> 60%	+++ (+++ is >60%)
Cc1cccc(CC(C)C)c1-c1nc2nc(c1C)OC[C@@H](CC(C)(C)C)N(Cc1ncc3cc(C(C)(C)C)n(C)c3n1)C(=O)c1cccc(c1)S(=O)(=O)N2 (atropisomer, axis not shown) [IV-47]	1000 to 3000 nM	> 60%	+++ (+++ is >60%)		
Cc1cccc(C)c1-c1cc2nc(n1)NS(=O)(=O)c1cccc(c1)C(=O)N(Cc1cnc3cc(C(C)(C)C)n(C)c3n1)[C@H](COC(C)C)CO2 [Compound I-185]	< 1000 nM			> 60%	+++ (+++ is >60%)
Cc1cccc(C)c1-c1cc2nc(n1)NS(=O)(=O)c1cccc(c1)C(=O)N(Cc1ncc3cc(C4CC4)n(C)c3n1)[C@H](CC1(C)CC1)CO2 [Compound I-263]	1000 to 3000 nM			> 60%	+++ (+++ is >60%)
Cc1cccc(C)c1-c1nc2nc(c1C)OC[C@@H](CC13CC(C1)C3)N(Cc1cnc3oc(C4(C)CC4)cc3n1)C(=O)c1cccc(c1)S(=O)(=O)N2 [Compound I-231]	< 1000 nM			> 60%	+++ (+++ is >60%)
Cc1cccc(CC(C)C)c1-c1nc2nc(c1C)OC[C@@H](CC(C)(C)C)N(Cc1cnc3oc(C4CC4)cc3n1)C(=O)c1cccc(c1)S(=O)(=O)N2 (atropisomer, axis not shown) [Compound I-137]	< 1000 nM			> 60%	+++ (+++ is >60%)
Cc1cccc(C)c1-c1cc2nc(n1)NS(=O)(=O)c1cccc(c1)C(=O)N(Cc1cnc3cc(C(C)(C)C)n(C)c3n1)[C@H](CC(C)(C)C)CO2 [Compound I-239]	< 1000 nM			> 60%	+++ (+++ is >60%)

Structure (SMILES)	EC50 [1]	Emax [1]	D act. at 1 μM (%) [2]	Emax ([1]; 18-24 hours)	D activity at 1 μM (%) [2]
Cc1cccc(C)c1-c1cc2nc(n1)NS(=O)(=O)c1cccc(c1)C(=O)N(Cc1cnc3oc(C4CCOCC4)cc3n1)[C@H](CC1(C)CC1)CO2 [IV-27]	3000 to 30000 nM	> 60%	+++ (+++ is >60%)		
Cc1cccc(C)c1-c1cc2nc(n1)NS(=O)(=O)c1cccc(c1)C(=O)N(Cc1cnc3oc(-c4ccnn4C)cc3n1)[C@H](CC1(C)CC1)CO2 [IV-30]	3000 to 30000 nM	> 60%	+++ (+++ is >60%)		
Cc1cccc(C)c1-c1cc2nc(n1)NS(=O)(=O)c1cccc(c1)C(=O)N(Cc1cnc3oc(COC(C)C)cc3n1)[C@H](CC1(C)CC1)CO2 [IV-18]	1000 to 3000 nM	> 60%	+++ (+++ is >60%)		
Cc1cccc(C)c1-c1cc2nc(n1)NS(=O)(=O)c1cccc(c1)C(=O)N(Cc1ncc3cc(C(C)(C)C)n(C)c3n1)[C@H](CC(C)(C)C)CO2 [IV-38]	1000 to 3000 nM	> 60%	+++ (+++ is >60%)		
CCC(C)(C)C[C@H]1COc2cc(-c3c(C)cccc3C)nc(n2)NS(=O)(=O)c2cccc(c2)C(=O)N1Cc1cnc2oc(C3CC3)cc2n1 [IV-34]	1000 to 3000 nM	> 60%	+++ (+++ is >60%)		
COc1c2nc(nc1-c1c(C)cccc1C)NS(=O)(=O)c1cccc(c1)C(=O)N(Cc1cnc3cc(C4(C)CC4)n(C)c3n1)[C@H](COC(C)C)CO2 [IV-11]	< 1000 nM	> 60%	+++ (+++ is >60%)		
Cc1cccc(C)c1-c1nc2nc(c1C)OC[C@@H](CC13CC(C1)C3)N(Cc1cnc3cc(C4(C)CC4)n(C)c3n1)C(=O)c1cccc(c1)S(=O)(=O)N2 [Compound I-228]	< 1000 nM			> 60%	+++ (+++ is >60%)
Cc1cccc(C)c1-c1nc2nc(c1C)OC[C@@H](CC(C)(C)C)N(Cc1ncc3cc(C4CC4)n(C)c3n1)C(=O)c1cccc(c1)S(=O)(=O)N2 [Compound I-265]	1000 to 3000 nM			> 60%	+++ (+++ is >60%)
COc1c2nc(nc1-c1c(C)cccc1C)NS(=O)(=O)c1cccc(c1)C(=O)N(Cc1cnc3cc(C(C)C)n(C)c3n1)[C@H](CC(C)(C)C)CC2 [Compound I-158]	1000 to 3000 nM			> 60%	+++ (+++ is >60%)
Cc1cccc(C)c1-c1cc2nc(n1)NS(=O)(=O)c1cccc(c1)C(=O)N(Cc1cnc3cc(C4(C)CC4)n(C)c3n1)[C@@H](C(C1CCC1)C1CCC1)CO2 (single isomer, unassigned) [IV-20, 11-[di(cyclobutyl)methyl]-6-(2,6-dimethylphenyl)-12-[[5-methyl-6-(1-methylcyclopropyl)pyrrolo[2,3-b]pyrazin-3-yl]methyl]-2,2-dioxo-9-oxa-2λ^6-thia-3,5,12,19-tetrazatricyclo[12.3.1.14,8]nonadeca-1(18),4(19),5,7,14,16-hexaen-13-one]	< 1000 nM	> 60%	+++ (+++ is >60%)		
Cc1cccc(C)c1-c1cc2nc(n1)NS(=O)(=O)c1cccc(c1)C(=O)N(Cc1cnc3oc(C(C)(C)C)cc3n1)[C@H](CC(C)(C)C)CO2 [Compound I-218]	< 1000 nM			> 60%	+++ (+++ is >60%)
Cc1cccc(C(C)C)c1-c1nc2nc(c1C)OC[C@@H](CC(C)(C)C)N(Cc1cnc3oc(C4(C)CC4)cc3n1)C(=O)c1cccc(c1)S(=O)(=O)N2 (atropisomer, axis not shown) [Compound I-213]	< 1000 nM			> 60%	+++ (+++ is >60%)
COCc1cc2nc(CN3C(=O)c4cccc(c4)S(=O)(=O)Nc4nc(cc(-c5c(C)cccc5C)n4)OC[C@H]3CC3(C)CC3)cnc2o1 [IV-16, (11R)-6-(2,6-dimethylphenyl)-12-[[6-(methoxymethyl)furo[2,3-b]pyrazin-2-yl]methyl]-11-[(1-methylcyclopropyl)methyl]-2,2-dioxo-9-oxa-2λ^6-thia-3,5,12,19-tetrazatricyclo[12.3.1.14,8]nonadeca-1(18),4(19),5,7,14,16-hexaen-13-one]			+++ (+++ is >60%)		
Cc1cccc(C)c1-c1nc2nc(c1C)OC[C@@H](CCC(C)(C)C)N(Cc1cnc3cc(C4CC4)n(C)c3n1)C(=O)c1cccc(c1)S(=O)(=O)N2 [Compound I-183]					+++ (+++ is >60%)
Cc1cccc(C)c1-c1cc2nc(n1)NS(=O)(=O)c1cccc(c1)C(=O)N(Cc1nc3cc(C(C)(C)C)oc3cc1F)[C@H](CC1(C)CC1)CO2 [Compound I-243]					+++ (+++ is >60%)
